In patent US20220323406A1, “METHODS AND COMPOSITIONS FOR DIFFERENTIATING STEM CELLS” (Massachusetts Institute of Technology, priority 2019, published 2022):
Counter-ions that a name gives are not always drawn.

Key:
[1] = test system: ENR+CD organoids (ISC to Paneth cell differentiation); experiment: Primary screen: basal (non-stimulated) lysozyme secretion LYZ.NS, 2.5-D 384-well ENR+CD organoid differentiation; assay type: cell-based, mouse
Description: (§1) High-throughput screening.

[2] = test system: ENR+CD organoids (ISC to Paneth cell differentiation); experiment: Primary screen: CCh-stimulated lysozyme secretion LYZ.S, 2.5-D 384-well ENR+CD organoid differentiation; assay type: cell-based, mouse; settings: primary screen
Description: as §1

ENR+CD organoids = experiment: Primary screen: ATP (CellTiter-Glo 3D, CTG) cell number/viability, 2.5-D 384-well ENR+CD organoids; settings: primary screen; for Z.CTG: standard z score;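 for all read-outs here: compounds given at plating and again on day 3 over a 6-day differentiation from ENR+CV stem-cell-enriched precursors, ATP measured on day 6, plate median as control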
[3] = primary screen, dose 0.08 uM, standard z score
[4] = primary screen, dose 0.40 uM, standard z score
[5] = primary screen, dose 2.00 uM, standard z score
[6] = primary screen, dose 10.00 uM, standard z score
[7] = dose 0.08 uM, FC vs plate median
[8] = dose 0.40 uM, FC vs plate median
[9] = dose 2.00 uM, FC vs plate median
[10] = dose 10.00 uM, FC vs plate median
[11] = primary screen, dose 0.08 uM, FC relative to plate median
[12] = primary screen, dose 0.40 uM, FC relative to plate median
[13] = primary screen, dose 2.00 uM, FC relative to plate median
[14] = primary screen, dose 10.00 uM, FC relative to plate median
[15] = dose 0.08 uM, FC relative to plate median
[16] = dose 0.40 uM, FC relative to plate median
[17] = dose 2.00 uM, FC relative to plate median
[18] = dose 10.00 uM, FC relative to plate median

CCN(CC)C(=O)c1ccc(C2=CC3(CCNCC3)Oc3cccc(O)c32)cc1 [ADL5859 HCl]
Dose.FC.LYZ.NS ([1]; primary screen, dose 0.08 uM): 0.053 log2 fold change
Z.LYZ.NS (standard z score) ([1]; primary screen, dose 0.08 uM): 0.458
Dose.FC.LYZ.NS ([1]; primary screen, dose 0.40 uM): 0.019 log2 fold change
Z.LYZ.NS (standard z score) ([1]; primary screen, dose 0.40 uM): 0.163
Dose.FC.LYZ.NS ([1]; primary screen, dose 2.00 uM): 0.066 log2 fold change
Z.LYZ.NS (standard z score) ([1]; primary screen, dose 2.00 uM): 0.571
Dose.FC.LYZ.NS ([1]; primary screen, dose 10.00 uM): −0.056 log2 fold change
Z.LYZ.NS (standard z score) ([1]; primary screen, dose 10.00 uM): −0.488
Dose.FC.LYZ.S ([2]; dose 0.08 uM): 0.079 log2 fold change
Dose.FC.LYZ.S ([2]; dose 0.40 uM): 0.104 log2 fold change
Dose.FC.LYZ.S ([2]; dose 2.00 uM): 0.070 log2 fold change
Dose.FC.LYZ.S ([2]; dose 10.00 uM): −0.040 log2 fold change
Dose.FC.CTG (ENR+CD organoids; dose 0.08 uM): 0.270 log2 fold change
Dose.FC.CTG (ENR+CD organoids; dose 0.40 uM): 0.163 log2 fold change
Dose.FC.CTG (ENR+CD organoids; dose 2.00 uM): 0.291 log2 fold change
Dose.FC.CTG (ENR+CD organoids; dose 10.00 uM): 0.194 log2 fold change

OC(CNCC(O)C1CCc2cc(F)ccc2O1)C1CCc2cc(F)ccc2O1 (stereo not shown) [Nebivolol]
Z.LYZ.NS [1, 3]: 1.525
Z.LYZ.NS [1, 4]: 2.776
Z.LYZ.NS [1, 5]: 0.960
Z.LYZ.NS [1, 6]: 0.836
Dose.FC.LYZ.NS ([1]; primary screen; dose 0.08 uM; FC vs plate median): 0.175 log2 fold change
Dose.FC.LYZ.NS ([1]; primary screen; dose 0.40 uM; FC vs plate median): 0.319 log2 fold change
Dose.FC.LYZ.NS ([1]; primary screen; dose 2.00 uM; FC vs plate median): 0.110 log2 fold change
Dose.FC.LYZ.NS ([1]; primary screen; dose 10.00 uM; FC vs plate median): 0.096 log2 fold change
Dose.FC.LYZ.S [2, 7]: 0.194 log2 fold change
Dose.FC.LYZ.S [2, 8]: 0.282 log2 fold change
Dose.FC.LYZ.S [2, 9]: 0.069 log2 fold change
Dose.FC.LYZ.S [2, 10]: 0.105 log2 fold change
Dose.FC.CTG (ENR+CD organoids; [7]): 0.388 log2 fold change
Dose.FC.CTG (ENR+CD organoids; [8]): 0.220 log2 fold change
Dose.FC.CTG (ENR+CD organoids; [9]): 0.312 log2 fold change
Dose.FC.CTG (ENR+CD organoids; [10]): 0.209 log2 fold change

CCc1nc(N)nc(N)c1-c1ccc(Cl)cc1 [Pyrimethamine]
Dose.FC.LYZ.NS [1, 11]: −0.005 log2 fold change
Z.LYZ.NS [1, 3]: −0.041
Dose.FC.LYZ.NS [1, 12]: −0.018 log2 fold change
Z.LYZ.NS [1, 4]: −0.160
Dose.FC.LYZ.NS [1, 13]: −0.144 log2 fold change
Z.LYZ.NS [1, 5]: −1.255
Dose.FC.LYZ.NS [1, 14]: −0.138 log2 fold change
Z.LYZ.NS [1, 6]: −1.199
Dose.FC.LYZ.S [2, 15]: 0.042 log2 fold change
Dose.FC.LYZ.S [2, 16]: −0.026 log2 fold change
Dose.FC.LYZ.S [2, 17]: −0.162 log2 fold change
Dose.FC.LYZ.S [2, 18]: −0.282 log2 fold change
Dose.FC.CTG (ENR+CD organoids; [15]): 0.007 log2 fold change
Dose.FC.CTG (ENR+CD organoids; [16]): −0.259 log2 fold change
Dose.FC.CTG (ENR+CD organoids; [17]): −0.416 log2 fold change
Dose.FC.CTG (ENR+CD organoids; [18]): −0.620 log2 fold change

CCN1CCC[C@H]1CNC(=O)c1cc(S(N)(=O)=O)ccc1OC [Levosulpiride]
Dose.FC.LYZ.NS (log2 fold change) ([1]; primary screen, dose 0.08 uM): 0.013
Z.LYZ.NS (standard z score) ([1]; primary screen, dose 0.08 uM): 0.114
Dose.FC.LYZ.NS (log2 fold change) ([1]; primary screen, dose 0.40 uM): 0.024
Z.LYZ.NS (standard z score) ([1]; primary screen, dose 0.40 uM): 0.205
Dose.FC.LYZ.NS (log2 fold change) ([1]; primary screen, dose 2.00 uM): 0.051
Z.LYZ.NS (standard z score) ([1]; primary screen, dose 2.00 uM): 0.441
Dose.FC.LYZ.NS (log2 fold change) ([1]; primary screen, dose 10.00 uM): −0.028
Z.LYZ.NS (standard z score) ([1]; primary screen, dose 10.00 uM): −0.240
Dose.FC.LYZ.S (log2 fold change) ([2]; dose 0.08 uM): −0.017
Dose.FC.LYZ.S (log2 fold change) ([2]; dose 0.40 uM): 0.128
Dose.FC.LYZ.S (log2 fold change) ([2]; dose 2.00 uM): 0.124
Dose.FC.LYZ.S (log2 fold change) ([2]; dose 10.00 uM): −0.026
Dose.FC.CTG (log2 fold change) (ENR+CD organoids; dose 0.08 uM): −0.043
Dose.FC.CTG (log2 fold change) (ENR+CD organoids; dose 0.40 uM): −0.006
Dose.FC.CTG (log2 fold change) (ENR+CD organoids; dose 2.00 uM): 0.031
Dose.FC.CTG (log2 fold change) (ENR+CD organoids; dose 10.00 uM): 0.090

O=C(Nc1ccccc1-c1cn2c(CN3CCNCC3)csc2n1)c1cnc2ccccc2n1 [SRT1720]
Dose.FC.LYZ.NS [1, 11]: 0.172 log2 fold change
Z.LYZ.NS [1, 3]: 1.495
Dose.FC.LYZ.NS [1, 12]: 0.112 log2 fold change
Z.LYZ.NS [1, 4]: 0.972
Dose.FC.LYZ.NS [1, 13]: 0.070 log2 fold change
Z.LYZ.NS [1, 5]: 0.613
Dose.FC.LYZ.NS [1, 14]: −0.104 log2 fold change
Z.LYZ.NS [1, 6]: −0.906
Dose.FC.LYZ.S [2, 15]: 0.190 log2 fold change
Dose.FC.LYZ.S [2, 16]: 0.099 log2 fold change
Dose.FC.LYZ.S [2, 17]: 0.051 log2 fold change
Dose.FC.LYZ.S [2, 18]: −0.193 log2 fold change
Dose.FC.CTG (ENR+CD organoids; [15]): 0.529 log2 fold change
Z.CTG (ENR+CD organoids; dose 0.08 uM): 1.264
Dose.FC.CTG (ENR+CD organoids; [16]): 0.394 log2 fold change
Z.CTG (ENR+CD organoids; dose 0.40 uM): 0.940
Dose.FC.CTG (ENR+CD organoids; [17]): 0.339 log2 fold change
Z.CTG (ENR+CD organoids; dose 2.00 uM): 0.810
Dose.FC.CTG (ENR+CD organoids; [18]): −1.016 log2 fold change
Z.CTG (ENR+CD organoids; dose 10.00 uM): −2.427

CCc1cccc2c3c([nH]c12)C(CC)(CC(=O)O)OCC3 (stereo not shown) [Etodolac]
Dose.FC.LYZ.NS ([1]; primary screen, dose 0.08 uM): 0.046 log2 fold change
Dose.FC.LYZ.NS ([1]; primary screen, dose 0.40 uM): 0.036 log2 fold change
Dose.FC.LYZ.NS ([1]; primary screen, dose 2.00 uM): 0.052 log2 fold change
Dose.FC.LYZ.NS ([1]; primary screen, dose 10.00 uM): −0.009 log2 fold change
Z.LYZ.NS ([1]; primary screen, standard z score, dose 0.08 uM): 0.400
Z.LYZ.NS ([1]; primary screen, standard z score, dose 0.40 uM): 0.314
Z.LYZ.NS ([1]; primary screen, standard z score, dose 2.00 uM): 0.452
Z.LYZ.NS ([1]; primary screen, standard z score, dose 10.00 uM): −0.078
Dose.FC.LYZ.S ([2]; dose 0.08 uM): 0.034 log2 fold change
Dose.FC.LYZ.S ([2]; dose 0.40 uM): 0.127 log2 fold change
Dose.FC.LYZ.S ([2]; dose 2.00 uM): 0.070 log2 fold change
Dose.FC.LYZ.S ([2]; dose 10.00 uM): −0.011 log2 fold change
Dose.FC.CTG (ENR+CD organoids; dose 0.08 uM): −0.061 log2 fold change
Dose.FC.CTG (ENR+CD organoids; dose 0.40 uM): 0.049 log2 fold change
Dose.FC.CTG (ENR+CD organoids; dose 2.00 uM): 0.008 log2 fold change
Dose.FC.CTG (ENR+CD organoids; dose 10.00 uM): 0.023 log2 fold change
